Test system: canine androgen receptor
Settings: DHT 10^−7 M, 24 hr, control A293S cells lacking the canine AR
Excerpt: Control plates were transfected with all plasmids except canine AR. […] Luciferase activity was normalized for transfection efficiency using β-galactosidase activity.
Control plates were transfected with all the same plasmids except canine AR. […] Cells were harvested 24 hr after compound addition and analyzed for luciferase activity (Luciferase Assay System, Promega, Madison, Wis.) and β-galactosidase activity (Galacto-Star, Tropix, Inc., Bedford, Mass.). Data is expressed as fold induction of luciferase activity as compared to vehicle, following normalization for transfection efficiency using β-galactosidase activity.

SMILES: C[C@]12CCC(=O)C[C@@H]1CC[C@@H]1[C@@H]2CC[C@]2(C)[C@@H](O)CC[C@@H]12 [DHT, 5α-androstan-17β-ol-3-one]
- induction of luciferase activity compared to vehicle: no induction
